This note sets out measurements from ChEMBL document CHEMBL1155295, “Benzo[c][2,7]naphthyridines as inhibitors of PDK-1” (Bioorg Med Chem Lett, 2009).

As usually defined, the IC50 is the midpoint of a concentration-inhibition curve.

The test has as its target T1, 3-phosphoinositide-dependent protein kinase 1 (Homo sapiens, UniProt O15530).
T1 sequence (O15530 whole entry): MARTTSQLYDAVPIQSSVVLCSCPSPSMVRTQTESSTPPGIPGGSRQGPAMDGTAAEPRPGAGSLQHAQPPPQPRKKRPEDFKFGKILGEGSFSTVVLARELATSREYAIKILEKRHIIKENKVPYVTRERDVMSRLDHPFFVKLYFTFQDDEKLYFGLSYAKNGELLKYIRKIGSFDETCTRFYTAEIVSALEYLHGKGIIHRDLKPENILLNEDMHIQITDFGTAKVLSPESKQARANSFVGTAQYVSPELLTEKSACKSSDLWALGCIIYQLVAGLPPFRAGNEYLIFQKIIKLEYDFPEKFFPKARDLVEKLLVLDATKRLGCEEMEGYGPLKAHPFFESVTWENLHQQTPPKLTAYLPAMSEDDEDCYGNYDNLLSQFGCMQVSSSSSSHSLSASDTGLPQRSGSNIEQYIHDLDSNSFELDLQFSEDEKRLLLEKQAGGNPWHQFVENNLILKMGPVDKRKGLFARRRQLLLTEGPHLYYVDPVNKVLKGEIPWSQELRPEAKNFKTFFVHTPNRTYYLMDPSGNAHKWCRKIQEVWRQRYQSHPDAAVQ
Put plainly: Inhibition of PDPK1 by ELISA assay.
For the compound `COc1cc2ncc3c(N)nc(-c4ccoc4)cc3c2cc1OC`, the IC50 is more than 1000 nM. Compound `COc1cc2ncc3c(N)nc(-c4cncc(Br)c4)cc3c2cc1OC` displayed an IC50 of 65 nM. Consider `COc1cc2ncc3c(N)nc(-c4cncc(Nc5ccccc5OCc5ccccc5)c4)cc3c2cc1OC`, for which the IC50 is more than 1000 nM. The figure for `COc1cc2ncc3c(N)nc(-c4cncc(Nc5ccccc5F)c4)cc3c2cc1OC` is 30 nM. The figure for `COc1cc2ncc3c(N)nc(-c4cccnc4)cc3c2cc1OC` is 35 nM; for `COc1cc2ncc3c(N)nc(-c4cncc(N)c4)cc3c2cc1OC` it is 26 nM. Regarding `COc1cc2ncc3c(N)nc(-n4ccnc4)cc3c2cc1OC`, the IC50 is 100 nM. Under `COc1cc2ncc3c(N)nc(-c4ccc(N)nc4)cc3c2cc1OC` stands more than 1000 nM; under `COc1cc2ncc3c(N)nc(-c4ccccn4)cc3c2cc1OC`, more than 100 nM. The figure for `COc1cc2c(cc1OCCCN1CCCCC1)ncc1c(N)nc(-c3cccnc3)cc12` is 144 nM; for `COc1cc2c(cc1OCc1ccccc1)ncc1c(N)nc(-c3cccnc3)cc12` it is 146 nM.
